Reference: patent US12258310B2, “Solid peroxyalphahydroxycarboxylic acid generation compositions and the use thereof” (ECOLAB USA INC., priority 2021, dated 2025)
Where “and” joins values, the source holds several entries; their conditions need not be identical. Equal entries are not always repeated.

Assays:
[1] = Physical property (vapor pressure, odor) of alphacarboxylic acids and peroxyalphacarboxylic acids; format: physicochemical
[2] = cited from earlier work
[3] = test system: Salmonella ser. Heidelberg, Newport and Braenderup (modified to be resistant to 50 μg/mL nalidixic acid); assay: Antimicrobial efficacy on chicken carcass, 15 second dip; format: cell-based; conditions: for Avg Log10 Survivors / CFU/Surface (CFU/ml × 50) / Log10 Reduction / Log10 Survivors: 15 second dip, drain time 30 minutes, room temperature
Procedure: Antimicrobial Efficacy of Peroxylactic Acid. The antimicrobial efficacy of peroxylactic acid generated from the solid peroxyalphahydroxycarboxylic acid forming composition of Table 4 was evaluated on chicken carcass against Salmonella in comparison to peroxyacetic acid (PAA). The molecular weight of PLA is 106, and PAA 76, therefore the molar equivalent base of the peracids is 500 ppm PLA equals to 359 ppm PAA.

[4] = test system: Listeria monocytogenes ATCC 49594; conditions: known; cited from earlier work
[5] = PLA generation kinetics and pH from solid pellet of Table 4 dissolved in DI water; format: physicochemical
Procedure: Following the successful perhydrolysis reactions of the lactide and glycolide esters, the solid composition shown in Table 4 using a lactide precursor was used to generate peroxylactic acid according to the same reaction scheme in FIG. 1. The lactide precursor was formulated into a solid pellet with citric acid and sodium percarbonate and the solid peroxyalphahydroxycarboxylic acid forming composition was added to water for the perhydrolysis reaction to generate peroxylactic acid (PLA). Beneficially, the citric acid acts as both a buffer and a dispersant or disintegrating reagent to provide effervescence to dissolve the solid composition more quickly into water and initiate the reaction of forming PLA. The reaction kinetics were evaluated by dissolving approximately 2.5 gram pellet as shown in Table 4 in 500 mL DI water to measure PLA generation and pH over time.
The PLA generation were measured on two occasions. […] The initial testing point of 10 minutes provides time for the pellet to dissolve in the water so that PLA generation can begin.
The stability of the tablets is also quantifiable by the chemistry of the reagents as they are capable of self-reacting. As a result, tablet (or solid) stability can also be assessed by the ability or capacity of the tablet to generate PLA after storage as another quantifiable mechanism to confirm stability. This is shown in Example 1, Table 6 compared to Table 5 is a direct comparison of PLA generation profiles of the tablets after 9 months of storage. […] In some embodiments it is preferred that at least about 50% or preferably at least about 80% of the PLA (or peroxyalphahydroxycarboxylic acid) generation is maintained.

[6] = test system: Escherichia coli ATCC 11229; assay: US EPA food contact suspension test (AOAC 960.09); format: cell-based; conditions: 30 seconds, 500 ppm synthetic hard water, ambient (18-20° C.)
Procedure: (§1) Antimicrobial Efficacy of Peroxylactic Acid. The antimicrobial efficacy of peroxylactic acid generated from the solid peroxyalphahydroxycarboxylic acid forming composition of Table 4 was evaluated following the US EPA food contact suspension test protocol (AOAC 960.09) against Staphylococcus aureus and Escherichia coli according to the conditions set forth in Table 7.

[7] = test system: Staphylococcus aureus ATCC 6538; assay: US EPA food contact suspension test (AOAC 960.09); format: cell-based; conditions: 30 seconds, 500 ppm synthetic hard water, ambient (18-20° C.)
Procedure: as §1

[8] = test system: Listeria monocytogenes ATCC 49594; assay: US EPA food contact suspension test (AOAC 960.09), FIG. 3; format: cell-based; conditions: 100 ppm, 30 seconds
Procedure: (§2) Additional Antimicrobial Efficacy of Peroxylactic Acid. Additional antimicrobial efficacy of generated peroxylactic acid was evaluated following the US EPA food contact suspension test protocol (AOAC 960.09) against Salmonella, E. coli, Campylobacter and Listeria according to the conditions set forth in Table 12.

[9] = test system: Salmonella, E. coli, Campylobacter and Listeria; assay: as above; format: cell-based; conditions: as low as 25 ppm, 30 seconds
Procedure: as §2

[10] = approx. 2.5 gram pellet of Table 4 in 500 mL DI water, first PLA generation, 10 min
[11] = approx. 2.5 gram pellet of Table 4 in 500 mL DI water, first PLA generation, 30 min
[12] = approx. 2.5 gram pellet of Table 4 in 500 mL DI water, first PLA generation, 60 min
[13] = approx. 2.5 gram pellet of Table 4 in 500 mL DI water, first PLA generation, 90 min
[14] = approx. 2.5 gram pellet of Table 4 in 500 mL DI water, first PLA generation, 120 min
[15] = approx. 2.5 gram pellet of Table 4 in 500 mL DI water, first PLA generation, 150 min
[16] = approx. 2.5 gram pellet of Table 4 in 500 mL DI water, first PLA generation, 180 min
[17] = approx. 2.5 gram pellet of Table 4 in 500 mL DI water, first PLA generation, 210 min
[18] = approx. 2.5 gram pellet of Table 4 in 500 mL DI water, first PLA generation, 240 min
[19] = same batch of tablets stored under ambient conditions for 9 months, 20 min
[20] = same batch of tablets stored under ambient conditions for 9 months, 30 min
[21] = same batch of tablets stored under ambient conditions for 9 months, 40 min
[22] = same batch of tablets stored under ambient conditions for 9 months, 50 min
[23] = same batch of tablets stored under ambient conditions for 9 months, 60 min
[24] = same batch of tablets stored under ambient conditions for 9 months, 120 min
[25] = same batch of tablets stored under ambient conditions for 9 months, 240 min
[26] = same batch of tablets stored under ambient conditions for 9 months, 300 min
[27] = same batch of tablets stored under ambient conditions for 9 months, 360 min

## O=C(O)CO [Glycolic acid]
[1]
  Odor: Odorless
[2]
  Vapor Pressure (20° C.): 0.003 KPa

## CC(=O)OO [PAA, peroxyacetic acid, reference compound]
[1]
  Odor: Sharp pungent
[3]; 500 ppm
  Avg Log10 Survivors: 6.54 Log10
  CFU/Surface (CFU/ml × 50): 4.35E+06 CFU/Surface and 2.35E+06 CFU/Surface and 3.95E+06 CFU/Surface
  Log10 Reduction: 1.09 Log10
  Log10 Survivors: 6.64 Log10 and 6.37 Log10 and 6.60 Log10
[4]
  Concentration required for greater than 7 log reduction against Listeria: at least 180 ppm
[2]
  Vapor Pressure (20° C.): 2.06 KPa

## CC(=O)O [Acetic Acid]
[1]
  Odor: Sour
[2]
  Vapor Pressure (20° C.): 1.56 KPa

## CC(O)C(=O)OO (stereo not shown) [PLA, peroxylactic acid]
[1]
  Odor: Odorless
[5]; [10]
  PLA (ppm): 130 ppm
  pH: 6.06
[5]; [11]
  PLA (ppm): 222 ppm
  pH: 5.95
[5]; [12]
  PLA (ppm): 236 ppm
  pH: 5.64
[5]; [13]
  PLA (ppm): 217 ppm
  pH: 5.41
[5]; [14]
  PLA (ppm): 202 ppm
  pH: 5.23
[5]; [15]
  PLA (ppm): 188 ppm
  pH: 5.11
[5]; [16]
  PLA (ppm): 170 ppm
  pH: 5.01
[5]; [17]
  PLA (ppm): 152 ppm
  pH: 4.93
[5]; [18]
  PLA (ppm): 146 ppm
  pH: 4.87
[5]; same batch of tablets stored under ambient conditions for 9 months, 10 min
  PLA (ppm): 122 ppm
[5]; [19]
  PLA (ppm): 150 ppm
  pH: 5.73
[5]; [20]
  PLA (ppm): 170 ppm
  pH: 5.69
[5]; [21]
  PLA (ppm): 198 ppm
  pH: 5.62
[5]; [22]
  PLA (ppm): 198 ppm
  pH: 5.58
[5]; [23]
  PLA (ppm): 200 ppm
  pH: 5.49
[5]; [24]
  PLA (ppm): 179 ppm
  pH: 5.25
[5]; same batch of tablets stored under ambient conditions for 9 months, 180 min
  PLA (ppm): 160 ppm
[5]; [25]
  PLA (ppm): 129 ppm
  pH: 4.82
[5]; [26]
  PLA (ppm): 102 ppm
  pH: 4.74
[5]; [27]
  PLA (ppm): 85 ppm
  pH: 4.68
[6]; 25 ppm PLA
  Average Log10 Growth: 3.25 Log10
  CFU/ml: 1.49E+03 CFU/ml and 2.10E+03 CFU/ml
  Log10 Growth: 3.17 Log10 and 3.32 Log10
  Log10 Reduction: 4.64 Log10
[6]; 50 ppm PLA
  Average Log10 Growth: <1.00 Log10
  CFU/ml: <1.00E+01 CFU/ml
  Log10 Growth: <1.00 Log10
  Log10 Reduction: >6.89 Log10
[6]; 100 ppm PLA
  Average Log10 Growth: <1.00 Log10
  CFU/ml: <1.00E+01 CFU/ml
  Log10 Growth: <1.00 Log10
  Log10 Reduction: >6.89 Log10
[7]; 50 ppm PLA
  Average Log10 Growth: >6.48 Log10
  CFU/ml: >3.00E+06 CFU/ml
  Log10 Growth: >6.48 Log10
  Log10 Reduction: <1.32 Log10
[7]; 100 ppm PLA
  Average Log10 Growth: 5.22 Log10
  CFU/ml: 2.20E+05 CFU/ml and 1.24E+05 CFU/ml
  Log10 Growth: 5.34 Log10 and 5.09 Log10
  Log10 Reduction: 2.58 Log10
[7]; 150 ppm PLA
  Average Log10 Growth: 2.82 Log10
  CFU/ml: 9.20E+02 CFU/ml and 4.80E+02 CFU/ml
  Log10 Growth: 2.96 Log10 and 2.68 Log10
  Log10 Reduction: 4.98 Log10
[7]; 200 ppm PLA
  Average Log10 Growth: <1.00 Log10
  CFU/ml: <1.00E+01 CFU/ml
  Log10 Growth: <1.00 Log10
  Log10 Reduction: >6.80 Log10
[3]; 500 ppm
  Avg Log10 Survivors: 6.55 Log10
  CFU/Surface (CFU/ml × 50): 2.90E+06 CFU/Surface and 5.45E+06 CFU/Surface
  Log10 Reduction: 1.08 Log10
  Log10 Survivors: 6.46 Log10 and 6.74 Log10
[3]; 1000 ppm
  Micro efficacy (log reduction) compared to peroxyacetic acid: improved micro efficacy
  Avg Log10 Survivors: 6.16 Log10
  CFU/Surface (CFU/ml × 50): 1.60E+06 CFU/Surface and 1.85E+06 CFU/Surface and 1.05E+06 CFU/Surface
  Log10 Reduction: 1.47 Log10
  Log10 Survivors: 6.20 Log10 and 6.27 Log10 and 6.02 Log10
[3]; 2000 ppm
  Avg Log10 Survivors: 6.54 Log10
  Log10 Reduction: 1.09 Log10
[3]; varying concentrations
  Micro efficacy (log reduction) compared to peroxyacetic acid: at least equivalent micro efficacy
[8]
  log reduction against Listeria: greater than 7 log
[9]
  Efficacy against various microbes: provides efficacy at low concentration doses

## CC(O)C(=O)O (stereo not shown) [Lactic Acid]
[1]
  Odor: No irritative odor
[2]
  Vapor Pressure (20° C.): 0.01 KPa
